Assay results from PubChem BioAssay (NCI).
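In this assay, cells in 96-well plates receive the compound at five concentrations for 48 hours. Endpoints are linearly interpolated between the surrounding concentrations. At the TGI there is no net growth.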

What was measured:
Experiment in all cases: NCI anticancer screen, dose series, 48 h
OVCAR-8 ovarian = tested on: OVCAR-8 ovarian
SR leukemia = tested on: SR leukemia
IGROV1 ovarian = tested on: IGROV1 ovarian
LXFL 529 NSCLC = tested on: LXFL 529 NSCLC
NCI-H23 lung = tested on: NCI-H23 lung
SNB-19 CNS = tested on: SNB-19 CNS
OVCAR-5 ovarian = tested on: OVCAR-5 ovarian
HT29 colon = tested on: HT29 colon
NCI-H226 lung = tested on: NCI-H226 lung
HOP-92 NSCLC = tested on: HOP-92 NSCLC
EKVX NSCLC = tested on: EKVX NSCLC
DMS 114 small cell lung = tested on: DMS 114 small cell lung
M14 melanoma = tested on: M14 melanoma
DMS 273 small cell lung = tested on: DMS 273 small cell lung
HCT-116 colon = tested on: HCT-116 colon
HCT-15 colon = tested on: HCT-15 colon
TK-10 renal = tested on: TK-10 renal
HCC-2998 colon = tested on: HCC-2998 colon
SF-295 CNS = tested on: SF-295 CNS
DLD-1 colon = tested on: DLD-1 colon
XF 498 CNS = tested on: XF 498 CNS
SNB-75 CNS = tested on: SNB-75 CNS
RPMI-8226 leukemia = tested on: RPMI-8226 leukemia
A549 NSCLC = tested on: A549 NSCLC
SNB-78 CNS = tested on: SNB-78 CNS
M19-MEL melanoma = tested on: M19-MEL melanoma
NCI-H522 lung = tested on: NCI-H522 lung
MALME-3M melanoma = tested on: MALME-3M melanoma
SK-MEL-2 melanoma = tested on: SK-MEL-2 melanoma
786-0 renal = tested on: 786-0 renal
UACC-62 melanoma = tested on: UACC-62 melanoma
RXF-631 renal = tested on: RXF-631 renal
SK-OV-3 ovarian = tested on: SK-OV-3 ovarian
KM20L2 colon = tested on: KM20L2 colon
NCI-H460 lung = tested on: NCI-H460 lung
SF-268 CNS = tested on: SF-268 CNS
RXF 393 renal = tested on: RXF 393 renal
A498 renal = tested on: A498 renal
UO-31 renal = tested on: UO-31 renal
SF-539 CNS = tested on: SF-539 CNS
U251 CNS = tested on: U251 CNS
KM12 colon = tested on: KM12 colon
HOP-18 NSCLC = tested on: HOP-18 NSCLC
OVCAR-3 ovarian = tested on: OVCAR-3 ovarian
UACC-257 melanoma = tested on: UACC-257 melanoma
COLO 205 colon = tested on: COLO 205 colon
SK-MEL-5 melanoma = tested on: SK-MEL-5 melanoma
SK-MEL-28 melanoma = tested on: SK-MEL-28 melanoma
HOP-62 NSCLC = tested on: HOP-62 NSCLC
OVCAR-4 ovarian = tested on: OVCAR-4 ovarian
LOX IMVI melanoma = tested on: LOX IMVI melanoma
ACHN renal = tested on: ACHN renal
SW-620 colon = tested on: SW-620 colon
SN12C renal = tested on: SN12C renal
MOLT-4 leukemia = tested on: MOLT-4 leukemia
HL-60(TB) leukemia = tested on: HL-60(TB) leukemia
K-562 leukemia = tested on: K-562 leukemia
CAKI-1 renal = tested on: CAKI-1 renal
CCRF-CEM leukemia = tested on: CCRF-CEM leukemia

In the case of `CCCCNC(=O)C1C2CCC(O2)C1C(=O)O` (stereo not drawn), the TGI (OVCAR-8 ovarian) is reported as 43.3 µM, the TGI (SR leukemia) is reported as 95.4 µM and the TGI (IGROV1 ovarian) is reported as > 100 µM. The TGI (LXFL 529 NSCLC) was 34.6 µM, the TGI (NCI-H23 lung) was > 100 µM and the TGI (SNB-19 CNS) was 58.7 µM. The TGI (OVCAR-5 ovarian) was > 100 µM, the TGI (HT29 colon) was 55.4 µM and the TGI (NCI-H226 lung) was 35.3 µM. It also gave a TGI (HOP-92 NSCLC) of 39 µM, a TGI (EKVX NSCLC) of 65.6 µM and a TGI (DMS 114 small cell lung) of 28.2 µM. The TGI (M14 melanoma) was 29.5 µM, the TGI (DMS 273 small cell lung) was > 100 µM and the TGI (HCT-116 colon) was 25.2 µM. It also gave a TGI (HCT-15 colon) of 70.3 µM, a TGI (TK-10 renal) of 42.5 µM and a TGI (HCC-2998 colon) of 46.6 µM. The TGI (SF-295 CNS) was 74.7 µM, the TGI (DLD-1 colon) was 49.4 µM and the TGI (XF 498 CNS) was 19.2 µM. The TGI (SNB-75 CNS) was 52.1 µM, the TGI (RPMI-8226 leukemia) was 42 µM and the TGI (A549 NSCLC) was > 100 µM. For the same compound, the TGI (SNB-78 CNS) was > 100 µM, the TGI (M19-MEL melanoma) was 41.4 µM and the TGI (NCI-H522 lung) was 41.8 µM. For the same compound, the TGI (MALME-3M melanoma) was 43.7 µM, the TGI (SK-MEL-2 melanoma) was 54.8 µM and the TGI (786-0 renal) was 31.5 µM. The TGI (UACC-62 melanoma) was 43.4 µM, the TGI (RXF-631 renal) was > 100 µM and the TGI (SK-OV-3 ovarian) was 53.7 µM. For the same compound, the TGI (KM20L2 colon) was 27.4 µM, the TGI (NCI-H460 lung) was > 100 µM and the TGI (SF-268 CNS) was 45.1 µM. The TGI (RXF 393 renal) was 8.44 µM, the TGI (A498 renal) was 32.4 µM and the TGI (UO-31 renal) was > 100 µM. For the same compound, the TGI (SF-539 CNS) was 39.6 µM, the TGI (U251 CNS) was 29 µM and the TGI (KM12 colon) was > 100 µM. The TGI (HOP-18 NSCLC) was 90.9 µM, the TGI (OVCAR-3 ovarian) was 31.5 µM and the TGI (UACC-257 melanoma) was 45.7 µM. The TGI (COLO 205 colon) was 32.5 µM, the TGI (SK-MEL-5 melanoma) was 45.8 µM and the TGI (SK-MEL-28 melanoma) was 76.1 µM. For the same compound, the TGI (HOP-62 NSCLC) was > 100 µM, the TGI (OVCAR-4 ovarian) was > 100 µM and the TGI (LOX IMVI melanoma) was 34.7 µM. It also gave a TGI (ACHN renal) of 57.7 µM, a TGI (SW-620 colon) of 10.6 µM and a TGI (SN12C renal) of 30.9 µM. For the same compound, the TGI (MOLT-4 leukemia) was 40.4 µM.

In the case of `COC(=O)C(C(=O)C(=O)Nc1cccc([N+](=O)[O-])c1)c1nc2ccc([N+](=O)[O-])cc2[nH]c1=O` (stereo not drawn), the TGI (OVCAR-8 ovarian) is reported as > 100 µM, the TGI (SR leukemia) is reported as > 100 µM and the TGI (IGROV1 ovarian) is reported as > 100 µM. For the same compound, the TGI (LXFL 529 NSCLC) was > 100 µM, the TGI (NCI-H23 lung) was > 100 µM and the TGI (SNB-19 CNS) was > 100 µM. For the same compound, the TGI (OVCAR-5 ovarian) was > 100 µM, the TGI (HT29 colon) was > 100 µM and the TGI (NCI-H226 lung) was > 100 µM. The TGI (EKVX NSCLC) was > 100 µM, the TGI (DMS 114 small cell lung) was > 100 µM and the TGI (M14 melanoma) was > 100 µM. For the same compound, the TGI (DMS 273 small cell lung) was > 100 µM, the TGI (HCT-116 colon) was > 100 µM and the TGI (HCT-15 colon) was > 100 µM. For the same compound, the TGI (HL-60(TB) leukemia) was > 100 µM, the TGI (TK-10 renal) was > 100 µM and the TGI (HCC-2998 colon) was > 100 µM. For the same compound, the TGI (SF-295 CNS) was > 100 µM, the TGI (DLD-1 colon) was > 100 µM and the TGI (XF 498 CNS) was > 100 µM. The TGI (SNB-75 CNS) was > 100 µM, the TGI (A549 NSCLC) was > 100 µM and the TGI (SNB-78 CNS) was > 100 µM. For the same compound, the TGI (M19-MEL melanoma) was > 100 µM, the TGI (NCI-H522 lung) was > 100 µM and the TGI (MALME-3M melanoma) was > 100 µM. The TGI (SK-MEL-2 melanoma) was > 100 µM, the TGI (786-0 renal) was > 100 µM and the TGI (UACC-62 melanoma) was > 100 µM. For the same compound, the TGI (RXF-631 renal) was > 100 µM, the TGI (SK-OV-3 ovarian) was > 100 µM and the TGI (KM20L2 colon) was > 100 µM. The TGI (NCI-H460 lung) was > 100 µM, the TGI (SF-268 CNS) was > 100 µM and the TGI (RXF 393 renal) was > 100 µM. The TGI (A498 renal) was > 100 µM, the TGI (UO-31 renal) was > 100 µM and the TGI (SF-539 CNS) was > 100 µM. For the same compound, the TGI (U251 CNS) was > 100 µM, the TGI (KM12 colon) was > 100 µM and the TGI (K-562 leukemia) was > 100 µM. The TGI (CAKI-1 renal) was > 100 µM, the TGI (HOP-18 NSCLC) was > 100 µM and the TGI (OVCAR-3 ovarian) was > 100 µM. The TGI (UACC-257 melanoma) was > 100 µM, the TGI (COLO 205 colon) was > 100 µM and the TGI (SK-MEL-5 melanoma) was > 100 µM. The TGI (CCRF-CEM leukemia) was > 100 µM, the TGI (SK-MEL-28 melanoma) was > 100 µM and the TGI (HOP-62 NSCLC) was > 100 µM. For the same compound, the TGI (OVCAR-4 ovarian) was > 100 µM, the TGI (LOX IMVI melanoma) was > 100 µM and the TGI (ACHN renal) was > 100 µM. The TGI (SW-620 colon) was > 100 µM, the TGI (SN12C renal) was > 100 µM and the TGI (MOLT-4 leukemia) was > 100 µM.

`C=C(C(=C)N1N=NC2C3CCC(C3)C21)N1N=NC2C3CCC(C3)C21` (stereo not drawn) was tested, and the TGI (OVCAR-8 ovarian) was > 100 µM, the TGI (SR leukemia) was > 100 µM and the TGI (IGROV1 ovarian) was > 100 µM. The TGI (LXFL 529 NSCLC) was > 100 µM, the TGI (NCI-H23 lung) was > 100 µM and the TGI (SNB-19 CNS) was > 100 µM. The TGI (OVCAR-5 ovarian) was > 100 µM, the TGI (HT29 colon) was > 100 µM and the TGI (HOP-92 NSCLC) was > 100 µM. For the same compound, the TGI (DMS 114 small cell lung) was > 100 µM, the TGI (M14 melanoma) was > 100 µM and the TGI (DMS 273 small cell lung) was > 100 µM. For the same compound, the TGI (HCT-116 colon) was > 100 µM, the TGI (HL-60(TB) leukemia) was 54.6 µM and the TGI (TK-10 renal) was > 100 µM. For the same compound, the TGI (HCC-2998 colon) was > 100 µM, the TGI (SF-295 CNS) was > 100 µM and the TGI (DLD-1 colon) was > 100 µM. The TGI (XF 498 CNS) was > 100 µM, the TGI (SNB-75 CNS) was > 100 µM and the TGI (A549 NSCLC) was > 100 µM. The TGI (SNB-78 CNS) was > 100 µM, the TGI (M19-MEL melanoma) was > 100 µM and the TGI (NCI-H522 lung) was > 100 µM. For the same compound, the TGI (MALME-3M melanoma) was > 100 µM, the TGI (786-0 renal) was > 100 µM and the TGI (UACC-62 melanoma) was > 100 µM. The TGI (RXF-631 renal) was > 100 µM, the TGI (NCI-H460 lung) was > 100 µM and the TGI (SF-268 CNS) was > 100 µM. The TGI (RXF 393 renal) was > 100 µM, the TGI (UO-31 renal) was > 100 µM and the TGI (SF-539 CNS) was > 100 µM. For the same compound, the TGI (U251 CNS) was > 100 µM, the TGI (KM12 colon) was > 100 µM and the TGI (K-562 leukemia) was > 100 µM. For the same compound, the TGI (CAKI-1 renal) was > 100 µM, the TGI (HOP-18 NSCLC) was > 100 µM and the TGI (OVCAR-3 ovarian) was > 100 µM. For the same compound, the TGI (UACC-257 melanoma) was > 100 µM, the TGI (COLO 205 colon) was > 100 µM and the TGI (SK-MEL-5 melanoma) was > 100 µM. For the same compound, the TGI (CCRF-CEM leukemia) was > 100 µM, the TGI (SK-MEL-28 melanoma) was > 100 µM and the TGI (HOP-62 NSCLC) was > 100 µM. The TGI (OVCAR-4 ovarian) was > 100 µM, the TGI (LOX IMVI melanoma) was > 100 µM and the TGI (ACHN renal) was > 100 µM. For the same compound, the TGI (SW-620 colon) was > 100 µM, the TGI (SN12C renal) was > 100 µM and the TGI (MOLT-4 leukemia) was > 100 µM.
